Test results as given in patent publication US8563545B2, “Compound useful for the treatment of degenerative and inflammatory diseases” (Galapagos NV, priority 2009, dated 2013).
Read-outs that look alike come from different tables or passages of the source.

Tests used:
[1] = Microsomal stability, human; assay type: in vitro ADME; settings: human liver microsomes, 3 μM compound
Method: (§1) A 10 mM stock solution of compound in DMSO was diluted 1000 fold in a 182 mM phosphate buffer pH7.4 in a 96 deep well plate (Greiner, Cat no. 780285) and pre-incubated at 37° C. 40 μL of deionised water was added to a well of a polypropylene Matrix 2D barcode labelled storage tube (Thermo Scientific) and pre-incubated at 37° C.
(§2) A Glucose-6-phophate-dehydrogenase (G6PDH) working stock solution was prepared in 182 mM phosphate buffer pH7.4 and placed on ice before use. A co-factor containing MgCl2, glucose-6-phosphate and NADP+ was prepared in deionised water and placed on ice before use.
(§3) A final working solution containing liver microsomes (Xenotech) of a species of interest (human, mouse, rat, dog), previously described G6PDH and co-factors was prepared and this mix was incubated for no longer than 20 minutes at room temperature.
(§4) 30 μL of the pre-heated compound dilution was added to 40 μL of pre-heated water in the Matrix tubes and 30 μL, of the microsomal mix was added. Final reaction concentrations were 3 μM compound, 1 mg microsomes, 0.4 U/mL GDPDH, 3.3 mM MgCl2, 3.3 mM glucose-6-phosphate and 1.3 mM NADP+.
(§5) To measure percentage remaining of compound at time zero MeOH or ACN was added (1:1) to the well before adding the microsomal mix. The plates were sealed with Matrix Sepra Seals™ (Matrix, Cat. No. 4464) and shaken for a few seconds ensure complete mixing of all components.
(§6) The samples which were not stopped are incubated at 37° C., 300 rpm and after 1 hr of incubation the reaction was stopped with MeOH or ACN (1:1).
(§7) After stopping the reaction the samples were mixed and placed on ice for 30 min to precipitate the proteins. The plates were then centrifuged 30 min at 1200 rcf at 4° C. and the supernatant was transferred to a 96 v-bottom PP plate (Greiner, 651201) for analysis on LCMS.
(§8) These plates were sealed with sealing mats (MA96RD-04S) of www.kinesis.co.uk and samples were measured at room temperature on LCMS (ZQ 1525 from Waters) under optimized conditions using Quanoptimize to determine the appropriate mass of the parent molecule.
(§9) The samples were analyzed on LCMS with a flow rate of 1 mL/min. Solvent A was 15 mM ammonia and solvent B was methanol or acetonitrile, depending on the stop solution used. The samples were run under positive ion spray on an XBridge C18 […] (2.1×30 mm) column, from Waters.
(§10) Peak area from the parent compound at time 0 was considered to be 100% remaining. The percentage remaining after 1 hr incubation was calculated from time 0 and was calculated as the percentage remaining. The solubility of the compound in the final test concentration in buffer is inspected by microscope and results are reported.
(§11) The data on microsomal stability are expressed as a percentage of the total amount of compound remaining after 60 min.

[2] = Pharmacokinetic study in rodents; assay type: in vivo, rat; settings: for F: PO 5 mg/kg vs IV 1 mg/kg; for Cmax: read-out: C0 or Cmax; for AUC: read-out: AUC (0-z); for Vd: read-out: Vss; for AUC(0-t): read-out: AUC (0-24 h)
Method: Sprague-Dawley rats (male, 5-6 weeks old) were obtained from Janvier (France). Rats were acclimatized for at least 7 days before treatment and were kept on a 12 hr light/dark cycle (0700-1900). Temperature was maintained at approximately 22° C., and food and water were provided ad libitum. […] After the surgery, rats were housed individually. Rats were deprived of food for at least 16 hours before oral dosing and 6 hours after. Water was provided ad libitum.
Test compounds were orally dosed as a single esophageal gavage at 5 mg/kg under a dosing volume of 5 ml/kg and intravenously dosed as a bolus via the caudal vein at 1 mg/kg under a dosing volume of 5 mL/kg. Each group consisted of 3 rats. […] For compound 11, blood samples were collected at the retro-orbital sinus with lithium heparin as anti-coagulant at the following time points 0.25, 1, 3 and 6 hrs (oral route). Whole blood samples were centrifuged at 5000 rpm for 10 min and the resulting plasma samples were stored at −20° C. pending analysis.
Plasma concentrations of each test compound were determined by an LC-MS/MS method in which the mass spectrometer was operated in positive electrospray mode.
Pharmacokinetic parameters were calculated using Winnonlin® (Pharsight®, United States).

TNF release in vivo = experiment: Septic shock model (LPS-induced TNF release); parameters: species or system mouse; settings: BALB/cJ mice, 30 mg/kg, po, LPS 15 μg/kg ip
Method: Injection of lipopolysaccharide (LPS) induces a rapid release of soluble tumour necrosis factor (TNF-alpha) into the periphery. This model was used to analyse prospective blockers of TNF release in vivo. Six BALB/cJ female mice (20 g) per group were treated at the intended dosing once, po. Thirty minutes later, LPS (15 μg/kg; E. Coli serotype 0111:B4) was injected ip. Ninety minutes later, mice were euthanized and blood was collected. Circulating TNF alpha levels were determined using commercially available ELISA kits. Dexamethasone ([…]) was used as a reference anti-inflammatory compound. Selected compounds were tested at one or multiple doses, e.g. 3 and/or 10 and/or 30 mg/kg, po.

[3] = Microsomal stability, rat; assay type: in vitro ADME; settings: rat liver microsomes, 3 μM compound
Method: as §1, §2, §3, §4, §5, §6, §7, §8, §9, §10, §11

TYK2 = TYK2 (Homo sapiens (Human), UniProt P29597); experiment: TYK2 inhibition assay; assay type: biochemical
Method: After 90 min at 30° C., reactions were stopped by adding 25 μL/well of 150 mM phosphoric acid. […] Plates were washed 6 times with 300 μL per well of a 75 mM phosphoric acid solution and the bottom of the plates was sealed. 40 μL/well of Microscint-20 was added, the top of the plates was sealed and readout was performed using the Topcount (Perkin Elmer). Kinase activity was calculated by subtracting counts per minute (cpm) obtained in the presence of a positive control inhibitor (10 μM staurosporine) from cpm obtained in the presence of vehicle. The ability of a test compound to inhibit this activity was determined as:
(§12) Percentage inhibition=((cpm determined for sample with test compound present−cpm determined for sample with positive control inhibitor)divided by(cpm determined in the presence of vehicle−cpm determined for sample with positive control inhibitor))*100.
Dose dilution series were prepared for the compounds enabling the testing of dose-response effects in the TYK2 assay and the calculation of the IC50 for each compound.

JAK1 = JAK1 (Homo sapiens (Human), UniProt P23458); experiment: JAK1 inhibition assay; assay type: biochemical
Method: Plates were washed 6 times with 300 μL per well of a 75 mM phosphoric acid solution and the bottom of the plates was sealed. 40 μL/well of Microscint-20 was added, the top of the plates was sealed and readout was performed using the Topcount (Perkin Elmer). Kinase activity was calculated by subtracting counts per minute (cpm) obtained in the presence of a positive control inhibitor (10 μM staurosporine) from cpm obtained in the presence of vehicle. The ability of a test compound to inhibit this activity was determined as:
as §12
Dose dilution series were prepared for the compounds enabling the testing of dose-response effects in the JAK1 assay and the calculation of the IC50 for each compound.

[4] = male, Sprague-Dawley, rat, plasma, po, 5 mg/kg
[5] = male, plasma, Sprague-Dawley rat, IV 1 mg/kg
[6] = male, plasma, Sprague-Dawley rat, IV 1 mg/kg (C0)
[7] = male, plasma, Sprague-Dawley rat, PO 5 mg/kg

TYK2, sequence (P29597 871-1187): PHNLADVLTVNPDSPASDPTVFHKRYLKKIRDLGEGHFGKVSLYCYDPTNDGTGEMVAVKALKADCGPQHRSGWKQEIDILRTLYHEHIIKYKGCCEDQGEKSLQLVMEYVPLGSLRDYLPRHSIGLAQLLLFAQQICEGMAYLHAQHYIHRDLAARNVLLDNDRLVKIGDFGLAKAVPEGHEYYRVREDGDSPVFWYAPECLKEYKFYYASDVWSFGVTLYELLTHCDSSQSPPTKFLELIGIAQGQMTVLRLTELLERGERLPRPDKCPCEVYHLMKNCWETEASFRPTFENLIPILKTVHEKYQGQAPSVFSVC
JAK1, sequence (P23458 850-1154): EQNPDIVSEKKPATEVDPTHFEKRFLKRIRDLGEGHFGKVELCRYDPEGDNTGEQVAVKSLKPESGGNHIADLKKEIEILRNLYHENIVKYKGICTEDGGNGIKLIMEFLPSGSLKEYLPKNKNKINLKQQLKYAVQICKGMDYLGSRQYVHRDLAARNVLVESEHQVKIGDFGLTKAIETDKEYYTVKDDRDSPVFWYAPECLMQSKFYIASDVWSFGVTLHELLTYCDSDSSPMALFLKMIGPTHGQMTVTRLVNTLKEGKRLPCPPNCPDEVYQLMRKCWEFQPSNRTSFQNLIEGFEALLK

percentage of compound remaining after 60 min, Human [1] | F ([2]; Sprague-Dawley rat) | Cmax [2, 4] | clearance [2, 5] | Cmax [2, 6] | AUC [2, 5] | Vd [2, 5] | Tmax [2, 7] | AUC(0-t) [2, 7] | AUC [2, 7] | percentage of compound remaining after 60 min, Rat [3] | Cl ([2]; Sprague-Dawley rat, IV 1 mg/kg) | AUC(0-t) [2, 5] | IC50 (TYK2) | IC50 (JAK1) | SMILES | activity in septic shock model (circulating TNF alpha) (TNF release in vivo)
87.2% | 45% | 310 ng/mL | 22.5 mL/min/kg | 1410 ng/mL | 722 ng·h/mL | 1.76 L/kg | 132 min | 1680 ng·h/mL | 1430 ng·h/mL | 65.6% |  |  |  |  | O=C(Nc1nc2cccc(-c3ccc(CN4CCS(=O)(=O)CC4)cc3)n2n1)C1CC1 [Compound 1, Cyclopropanecarboxylic acid {5-[4-(1,1-dioxo-1-thiomorpholin-4-ylmethyl)-phenyl]-[1,2,4]triazolo [1,5-a]pyridin-2-yl}-amide] | active
73% | 62% | 1320 ng/mL |  | 863 ng/mL | 470 ng·h/mL | 1.46 L/kg | 19.8 min | 1460 ng·h/mL | 1440 ng·h/mL | 38% | 2.12 | 474 ng·h/mL | 2100 nM |  | O=C(Nc1nc2cccc(-c3ccc(CN4CCOCC4)cc3)n2n1)C1CC1 [Compound 2, N-(5-(4-(morpholinomethyl)phenyl)-[1,2,4]triazolo[1,5-a]pyridin-2-yl)cyclopropanecarboxamide] | active
102% |  |  |  |  |  |  |  |  |  | 89% |  |  |  | 18.2 nM | O=C(Nc1nc2cccc(-c3ccc(C(=O)N4CCS(=O)(=O)CC4)cc3)n2n1)C1CC1 [Compound 10, Cyclopropanecarboxylic acid {5-[4-(1,1-dioxo-1-thiomorpholine-4-carbonyl)-phenyl]-[1,2,4]triazolo [1,5-a]pyridin-2-yl}-amide] | active
51% |  | 547 ng/mL |  |  |  |  | 15 min |  | 690 ng·h/mL | 26% |  |  | 126 nM | 7.69 nM | O=C(Nc1nc2cccc(-c3ccc(CN4CCC(F)(F)CC4)cc3)n2n1)C1CC1 [Compound 11, Cyclopropanecarboxylic acid {5-[4-(4,4-difluoro-piperidin-1-ylmethyl)-phenyl]-[1,2,4]triazolo [1,5-a]pyridin-2-yl}-amide] | 
